Data set [1] has as its system T. mentagrophytes (TIMM 1189). The data set can be described thus: Antifungal activities (in vivo), guinea pig skin infection, retro-culture. Also noted: species or system Hartley white female guinea pigs. As to conditions: guinea pigs, 1% test compound in white petrolatum applied once a day for 6 days from fifth day of inoculation. The source says: Hartley white female guinea pigs were used in this test. The back hair were depilated to form a round area having a diameter of 2 cm. 1×10^8microconidia of T. mentagrophytes (TIMM 1189) were inoculated therein for infection. From the fifth day of the inoculation, a composition containing 1% test compound (base: white petrolatum) was applied once a day for 6 consecutive days. Thereafter, the animals were left for 1 day, and slaughtered while removing the blood. The suffered skin was taken, cut and subjected to the retro-culture. The negative ratio of the strain was measured.

The next data set concerns C. albicans (TIMM 0144). The data set can be described thus: Direct cell-membrane damaging (potassium ion leakage). Format: cell-based. Particulars: test compound 40 μg/ml, 15 minutes, atomic absorption spectrometry. As for the experimental part:
Direct cell-membrane damaging, which is one of the characteristic actions of azole antifungal drugs, was evaluated.
As a test strain, C. albicans (TIMM 0144) was used. Fresh cultures of C. albicans (TIMM 0144) were washed to make a deionized aqueous solution containing the same at a concentration of 1×10^8 /ml. In the presence of a test compound at a concentration of 40 μg/ml, potassium ion leakage concentration was measured 15 minutes after by way of atomic absorption spectrometry to evaluate the direct cell-membrane damaging.

A short description of the next data set: Acute toxicity. As to conditions: mouse, in vivo, po; dosed orally on mice.
The test system of a further data set is Trichophyton sp. The data set can be described thus: Antifungal activities (in vitro), MIC on Sabouraud's agar medium. It counts as cell-based. Particulars: 168 h, 27° C., growth evaluated seven days after. As for the experimental part:
(§1) A plate of a series of diluted specimen was prepared under steriled conditions using Sabouraud's agar medium (glucose 2%, peptone 1%, agar 1.5%), to which 1 μl of each of the test fungus solutions was inoculated by using a quantitative platinum loop.

The test system of the next data set is Candida sp. The data set is described as above. It counts as cell-based. Particulars: 48 h, 37° C., growth evaluated two days after. As for the experimental part: as §1

≈ marks a conversion by molar mass, not a printed value.

Turning to `Clc1ccccc1C(c1ccccc1)(c1ccccc1)n1ccnc1` [Clotrimazole, clotrimazole, reference compound], the “Negative ratio (%)” value in data set [1] was determined as 24%.

As for `CC(C)=CCC/C(C)=C/COC(Cn1ccnc1)c1ccc(Cl)cc1Cl` (centres unmarked) [Compound 1, 1-[2-(2,4-dichlorophenyl)-2-((E)-3,7-dimethylocta-2,6-dienyloxy)ethyl]-1H-imidazole], in the data set on C. albicans (TIMM 0144), the “Potassium ion leakage rate (%)” value was found to be 81%. The compound also registered an LD50 in “Acute toxicity” of at least 1000 mg/kg. Moreover, the results for the MIC against Trichophyton sp. and in the data set with Candida sp. were 5 to 10 µg/mL (≈ 12.7 to 25.4 µM) and 40 µg/mL (≈ 102 µM), respectively. In data set [1], the “Negative ratio (%)” value was determined as 95%.

On to `CC(C)=CCC/C(C)=C/CC/C(C)=C/COC(Cn1ccnc1)c1ccc(Cl)cc1Cl` (centres unmarked) [Compound 2, 1-[2-(2,4-dichlorophenyl)-2-((E,E)-3,7,11-trimethyldodeca-2,6,10-trienyloxy)ethyl]-1H-imidazole], for which, in the data set with C. albicans (TIMM 0144), the “Potassium ion leakage rate (%)” value was found to be 55%. Also, the minimal inhibitory concentration (MIC) was 40 to 80 µg/mL (≈ 86.7 to 173 µM) against Trichophyton sp. and over 80 µg/mL against Candida sp..

`CC(C)=CCC/C(C)=C/COC(Cn1ccnc1)c1ccccc1[N+](=O)[O-]` (centres unmarked) [Compound 3, 1-[2-((E)-3,7-dimethylocta-2,6-dienyloxy)-2-(2-nitrophenyl)ethyl]-1H-imadazole]: the MIC against Trichophyton sp. lay within 0.16 to 5 µg/mL (≈ 0.433 to 13.5 µM); in the data set with Candida sp., 20 to 40 µg/mL (≈ 54.1 to 108 µM).

For the compound `CC(C)=CCC/C(C)=C/COC(Cn1ccnc1)c1ccccc1C(F)(F)F` (centres unmarked) [Compound 4, 1-[2-((E)-3,7-dimethylocta-2,6-dienyloxy)-2-(2-trifluoromethylphenyl)ethyl]-1H-imidazole], the minimum inhibitory concentration (MIC) in the data set with Trichophyton sp. is 1.25 to 20 µg/mL (≈ 3.18 to 51 µM); in the data set with Candida sp. it was 20 µg/mL (≈ 51 µM).

With `CC(C)=CCC/C(C)=C/COC(Cn1ccnc1)c1ccccc1` (centres unmarked) [Compound 5, 1-[2-((E)-3,7-dimethylocta-2,6-dienyloxy)-2-phenylethyl]-1H-imidazole], the minimum inhibitory concentration (MIC) against Trichophyton sp. came to 5 µg/mL (≈ 15.4 µM); against Candida sp. it was 20 µg/mL (≈ 61.6 µM).

As to `CC(C)=CCC/C(C)=C\COC(Cn1ccnc1)c1ccc(Cl)cc1Cl` (centres unmarked) [Compound 6, 1-[2-(2,4-dichlorophenyl)-2-((Z)-3,7-dimethylocta-2,6-dienyloxy)ethyl]-1H-imidazole], the “Potassium ion leakage rate (%)” value with C. albicans (TIMM 0144) worked out at 74%. For the same compound, the values for the minimal inhibitory concentration (MIC) with Trichophyton sp. and with Candida sp. were 5 to 10 µg/mL (≈ 12.7 to 25.4 µM) and 20 to 40 µg/mL (≈ 50.8 to 102 µM), respectively. Besides, the “Negative ratio (%)” value in data set [1] came to 89%.

Take `CC(C)=CCC/C(C)=C/COC(Cn1cncn1)c1ccc(Br)cc1` (centres unmarked) [Compound 7, 1-[2-(4-bromophenyl)-2-((E)-3,7-dimethylocta-2,6-dienyloxy)ethyl]-1H-triazole]: the MIC in the data set on Trichophyton sp. and against Candida sp. was over 80 µg/mL in each case.

On to `CC(C)=CCC/C(C)=C/CNC(Cn1ccnc1)c1ccc(Cl)cc1Cl` (centres unmarked) [Compound 8, 1-[2-(2,4-dichlorophenyl)-2-((E)-3,7-dimethylocta-2,6-dienylamino)ethyl]-1H-imidazole], for which the “Potassium ion leakage rate (%)” value in the data set with C. albicans (TIMM 0144) amounted to 65%. Moreover, the minimal inhibitory concentration (MIC) is 10 to 20 µg/mL (≈ 25.5 to 51 µM) against Trichophyton sp. and 40 µg/mL (≈ 102 µM) against Candida sp.. Moreover, the “Negative ratio (%)” value in data set [1] is 46%.

As to `CC(C)=CCC/C(C)=C/CN(C)C(Cn1ccnc1)c1ccc(Cl)cc1Cl` (centres unmarked) [Compound 9, 1-[2-(2,4-dichlorophenyl)-2-{N-((E)-3,7-dimethylocta-2,6-dienyl)-N-methylamino}ethyl]-1H-imidazole], the MIC with Trichophyton sp. is 10 to 20 µg/mL (≈ 24.6 to 49.2 µM); in the data set with Candida sp., 40 µg/mL (≈ 98.4 µM). Also, the “Negative ratio (%)” value in data set [1] is 34%.

Take `CC(C)=CCC/C(C)=C/CSC(Cn1ccnc1)c1ccc(Cl)cc1Cl` (centres unmarked) [Compound 10, 1-[2-(2,4-dichlorophenyl)-2-((E)-3,7-dimethylocta-2,6-dienylthio)ethyl]-1H-imidazole]: the “Potassium ion leakage rate (%)” value in the data set on C. albicans (TIMM 0144) was 47%. Also, the minimum inhibitory concentration (MIC) in the data set with Trichophyton sp. was 20 µg/mL (≈ 48.8 µM); against Candida sp. it was over 80 µg/mL. Moreover, the “Negative ratio (%)” value in data set [1] turned out to be 37%.

`CC(C)=CCC/C(C)=C/CO/N=C(\Cn1ccnc1)c1ccc(Cl)cc1Cl` [Compound 11, (Z)-1-(2,4-dichlorophenyl)-2-(1H-imidazole-1-yl)-O-((E)-3,7-dimethylocta-2,6-dienyl) ethanonoxime]: the MIC was 5 to 20 µg/mL (≈ 12.3 to 49.2 µM) with Trichophyton sp. and 40 µg/mL (≈ 98.4 µM) with Candida sp..

With `Clc1ccc(COC(Cn2ccnc2)c2ccc(Cl)cc2Cl)c(Cl)c1` (centres unmarked) [Miconazole, miconazole, reference compound], the “Negative ratio (%)” value in data set [1] was determined as 27%.

As usually defined, the LD50 is the dose expected to kill half of the subjects tested. Read a high LD50 as lower toxicity. Broadly, the MIC is the lowest concentration that inhibits growth of the organism.

The values are drawn from patent US5183824A, “Azole derivatives and antifungal drugs containing the same as an active component” (Kao Corporation, priority 1989, dated 1993).
